In US8940723B2, “Combination of a pyrroloquinoline compound and a beta-lactam antimicrobial agent, mupirocin or chlorhexidine” (Helperby Therapeutics Limited, priority 2010, dated 2015):
≈ marks a conversion by molar mass, not a printed value. Entries after “also recorded” stand apart in the source; their conditions may differ. Read-outs that look alike come from different tables or passages of the source.

Legend:
[1] = test system: Staphylococcus aureus (Oxford); assay: Minimum bactericidal concentration (MBC), subculture on drug-free TSA plates; format: cell-based; settings: S. aureus (Oxford), subculture on TSA 24 to 48 hours at 37° C.
Experimental: Minimum bactericidal concentration (MBC) was determined by subculturing 100 μl of dilutions from the 96-well plate on fresh drug-free TSA agar plates and incubating further for 24 to 48 hours at 37° C.

[2] = test system: Staphylococcus aureus (Oxford); assay: Minimum inhibitory concentration (MIC), broth dilution method; format: cell-based; settings: S. aureus (Oxford), Iso-Sensitest broth, overnight incubation at 37° C.
Experimental: Staphylococcus aureus (Oxford); Gram positive; Reference strain.
Iso-Sensitest Broth (Oxoid) was used for evaluation of Minimum inhibitory concentrations (MICs), susceptibility tests for antimicrobials, and efficacy of antimicrobial combinations.
The stock solution of each drug was diluted to required concentrations. 10 μl of drug from each dilution was taken and mixed with 290 μl of culture with 10^6 of bacterial cells on a 96-well plate to make the final required concentrations (μg/ml).
The plates were read at 405 nm using a 96-well plate reader Elx 800 equipped with a 405-nm filter (Bio-Tek) before and after incubation. The MIC values of the drugs were determined by comparison of the optical density reading between prior and post drug treatment.

[3] = test system: log phase S. aureus (Oxford strain); assay: Time-kill curve suspension assay, CFU counts, log phase; format: cell-based, Staphylococcus aureus
Experimental: For CFU counting, the bacterial suspensions were diluted using sterile deionized water or phosphate-buffered saline (PBS, Sigma Aldrich Ltd, Poole, Dorset, UK). 100 μl of 10-fold serial dilutions of bacteria culture were plated on one third of TSA plates in triplicate and incubated 24 to 48 hours at 37° C. The number of cells presented on the plates was counted using an AcoLyte colony counter (Synbiosis) and results were expressed as Colony Forming Units/ml (CFU/ml). […] (b) mupirocin; and (c) chlorhexidine gluconate against S. aureus, in a concentration range from below to above the MIC, was assessed in a suspension assay by the time-kill curve method. […] The wells were then inoculated with 280 μl of S. aureus (Oxford strain) suspension containing 10^7 CFU/ml of inocula. Drug free controls were also included. The microtitre plates were incubated at 37° C. for 16 to 24 hours, read in a 96-well plate reader, then samples were diluted and 100 μl of each dilution was plated out on TSA plates. After 24 to 48 hours incubation CFU was counted. Each test was performed in triplicate and repeated twice. […] The wells were then inoculated with 280 μl of S. aureus (Oxford strain) suspension containing 10^7 CFU/ml of inocula. Drug free controls were also included. The microtitre plates were incubated at 37° C. for 16 to 24 hours, read in a 96-well plate reader, then samples were diluted and 100 μl of each dilution was plated out on TSA plates. After 24 to 48 hours incubation CFU was counted. […] Each test was performed in triplicate and repeated twice. […] The wells were then inoculated with 280 μl of S. aureus (Oxford strain) suspensions containing 10^7 or 10^8 and CFU/ml of inocula. Drug free controls were also included. The microtitre plates were incubated at 37° C. for 16 to 24 hours, read in a 96-well plate reader, then samples were diluted and 100 μl of each dilution was plated out on TSA plates. After 24 to 48 hours incubation CFU was counted. Each test was performed in triplicate and repeated twice. […] The mean bacterial colony count at varying time points was compared by the two-tailed t-test with unequal variance. P values of ≦0.05 indicated significant difference.

[4] = test system: clinically latent microorganisms; assay: Screening for ability to kill clinically latent microorganisms (method of WO2000028074); format: cell-based
Text: International Patent Application, Publication Number WO2000028074 describes a method of screening compounds to determine their ability to kill clinically latent microorganisms. […] This observation has necessitated the development of novel antimicrobials which may be used to kill clinically latent microorganisms.
By way of example, WO2000028074 describes a suitable method of screening compounds to determine their ability to kill clinically latent microorganisms. A typical method may include the following steps: • (1) growing a bacterial culture to stationary phase; • (2) treating the stationary phase culture with one or more antimicrobial agents at a concentration and or time sufficient to kill growing bacteria, thereby selecting a phenotypically resistant sub-population; • (3) incubating a sample of the phenotypically resistant subpopulation with one or more test compounds or agents; and • (4) assessing any antimicrobial effects against the phenotypically resistant subpopulation.
According to this method, the phenotypically resistant sub-population may be seen as representative of clinically latent bacteria which remain metabolically active in vivo and which can result in relapse or onset of disease.

[5] = Staphylococcus aureus, read-out: MBC
[6] = Staphylococcus aureus, read-out: MIC

Structure (SMILES) | MBC [1, 5] [mg/L] | MIC [2, 6] [mg/L] | activity against clinically latent microorganisms [4] | other results
Cc1nc2ccc(Oc3ccccc3)cc2c2c1CCN2CCc1ccccc1 [4-methyl-8-phenoxy-1-(2-phenylethyl)-2,3-dihydro-1H-pyrrolo[3,2-c]quinoline] | 16 (≈ 42.1 µM) | 8 | – | activity against log phase S. aureus ([3]; agent alone at 4 μg/ml): no activities; also recorded: no activity; kind of activity against log phase S. aureus ([3]; pyrroloquinoline alone at 10 and 8 μg/ml): bactericidal activity; CFU/ml reduced from 10^7 to ([3]; pyrroloquinoline alone at 10 and 8 μg/ml, at 72 hours): zero
N=C(NCCCCCCNC(=N)NC(=N)Nc1ccc(Cl)cc1)NC(=N)Nc1ccc(Cl)cc1.O=C(O)[C@H](O)[C@@H](O)[C@H](O)[C@H](O)CO.O=C(O)[C@H](O)[C@@H](O)[C@H](O)[C@H](O)CO [Chlorhexidine gluconate] | – | – | – | MBC [1]: 2 mg/L; MIC [2]: 0.5 mg/L
C/C(=C\C(=O)OCCCCCCCCC(=O)O)C[C@@H]1OC[C@H](C[C@@H]2O[C@H]2[C@@H](C)[C@H](C)O)[C@@H](O)[C@H]1O [Mupirocin] | 256 (≈ 511 µM) | 0.125 | little or no activity | kind of activity against log phase S. aureus ([3]; mupirocin alone at 40, 20 and 10 μg/ml): bacteriostatic
CC[C@H]1OC(=O)[C@H](C)[C@@H](O[C@H]2C[C@@](C)(OC)[C@@H](O)[C@H](C)O2)[C@H](C)[C@@H](O[C@@H]2O[C@H](C)C[C@H](N(C)C)[C@H]2O)[C@](C)(O)C[C@@H](C)CN(C)[C@H](C)[C@@H](O)[C@]1(C)O [azithromycin] | – | – | little or no activity | –
CC(=O)NC[C@H]1CN(c2ccc(N3CCOCC3)c(F)c2)C(=O)O1 [linezolid] | – | – | little or no activity | –
